In brackets after ≈: the same amount, converted by molar mass.
Key:
[1] = tested on: Erysipelothrix rhusiopathiae NCTC 8163; experiment: MIC against veterinary bacteria in vitro; settings: Erysipelothrix rhusiopathiae, NCTC8163, 18 h
Method: (§1) The activity of the compounds of the Examples against various veterinarily important bacteria, was assayed in vitro using two-fold serial dilutions in Diagnostic Sensitivity Test Agar inoculated with 10^4 organisms.

Strep. uberis SPU1 = experiment: MIC against veterinary bacteria in vitro; settings: Streptococcus uberis, SPU1, 18 h
Method: as §1

S. typhimurium S18 = experiment: MIC against veterinary bacteria in vitro; settings: Salmonella enterica, TYPHIMURIUM, 18 h
Method: as §1

[2] = tested on: Neisseria catarrhalis 1502; experiment: MIC against human bacteria in vitro; type: cell-based; settings: Neisseria catarrhalis 1502; 5% chocolated horse blood agar, 18 hours; read-out: MIC
M. suipneumoniae Str. 11 = experiment: MIC against mycoplasma in vitro; type: cell-based; settings: Mesomycoplasma hyopneumoniae, STR.11, 144 h
Staph. aureus W2827 = experiment: MIC against human bacteria in vitro; type: cell-based; settings: Staphylococcus aureus; Staph. aureus W2827; 5% chocolated horse blood agar, 18 hours; read-out: MIC
M. hyorhinis ATCC 23234 = experiment: MIC against mycoplasma in vitro; type: cell-based; settings: Mesomycoplasma hyorhinis, ATCC23234, 144 h
M. suipneumoniae LABER = experiment: MIC against mycoplasma in vitro; type: cell-based; settings: Mesomycoplasma hyopneumoniae, 144 h
[3] = tested on: Corynebacterium pyogenes CY1; experiment: MIC against veterinary bacteria in vitro; settings: CY1, 18 h
Method: as §1

E. coli NCTC 10418 = experiment: MIC against human bacteria in vitro; type: cell-based; settings: Escherichia coli, NCTC10418; E. coli NCTC 10418; agar with 5% chocolated horse blood, 18 hours, 37° C.; read-out: MIC
[4] = tested on: Staph. aureus 152 (pen. sens); experiment: MIC against veterinary bacteria in vitro; settings: Staphylococcus aureus, 18 h
Method: as §1

Past. multocida PA2 = experiment: MIC against veterinary bacteria in vitro; settings: Pasteurella multocida, PA2, 18 h
Method: as §1

[5] = tested on: Haemophilus influenzae Wy21; experiment: MIC against human bacteria in vitro; type: cell-based; settings: Haemophilus influenzae Wy21; 5% chocolated horse blood agar, 18 hours; read-out: MIC
Staph. aureus Russell = experiment: MIC against human bacteria in vitro; type: cell-based; settings: Staphylococcus aureus; Staph. aureus Russell; 5% chocolated horse blood agar, 18 hours; read-out: MIC
M. hyorhinis ATCC 25021 = experiment: MIC against mycoplasma in vitro; type: cell-based; settings: Mesomycoplasma hyorhinis, ATCC25021, 144 h; M. hyorhinis ATCC 25021; 6 days, 37° C.; read-out: MIC
Strep. dysgalactiae SPD1 = experiment: MIC against veterinary bacteria in vitro; settings: Streptococcus dysgalactiae, SPD1, 18 h
Method: as §1

M. suipneumoniae NB12 = experiment: MIC against mycoplasma in vitro; type: cell-based; settings: Mesomycoplasma hyopneumoniae, 144 h; M. suipneumoniae NB12; Friis broth, 0.9% agarose, 6 days, 37° C.; read-out: MIC
[6] = tested on: Corynebacterium xerosis 9755; experiment: MIC against human bacteria in vitro; type: cell-based; settings: Corynebacterium xerosis 9755; 5% chocolated horse blood agar, 18 hours; read-out: MIC
Strep. agalactiae 2788-B = experiment: MIC against human bacteria in vitro; type: cell-based; settings: Streptococcus agalactiae; Strep. agalactiae 2788-B; 5% chocolated horse blood agar, 18 hours; read-out: MIC
Strep. faecalis I = experiment: MIC against human bacteria in vitro; type: cell-based; settings: Enterococcus faecalis; Strep. faecalis I; 5% chocolated horse blood agar, 18 hours; read-out: MIC
E. coli ESS = experiment: MIC against human bacteria in vitro; type: cell-based; settings: Escherichia coli; E. coli ESS; 5% chocolated horse blood agar, 18 hours; read-out: MIC
S. dublin S7 = experiment: MIC against veterinary bacteria in vitro; settings: Salmonella enterica, S7, 18 h
Method: as §1

[7] = tested on: M. suipneumoniae ATCC 25095; experiment: MIC against mycoplasma in vitro; type: cell-based; settings: Mesomycoplasma hyopneumoniae, ATCC25095, 144 h; M. suipneumoniae ATCC 25095; 6 days, 37° C.; read-out: MIC
[8] = tested on: M. bovigenitalium ATCC 14173; experiment: MIC against mycoplasma in vitro; type: cell-based; settings: 144 h
[9] = tested on: Strep. pyogenes R80/421-A; experiment: MIC against human bacteria in vitro; type: cell-based; settings: Streptococcus pyogenes; Strep. pyogenes R80/421-A; 5% chocolated horse blood agar, 18 hours; read-out: MIC
M. suipneumoniae HK(2) = experiment: MIC against mycoplasma in vitro; type: cell-based; settings: Mesomycoplasma hyopneumoniae, 144 h
Strep. pneumoniae CN33 = experiment: MIC against human bacteria in vitro; type: cell-based; settings: Streptococcus pneumoniae; Strep. pneumoniae CN33; 5% chocolated horse blood agar, 18 hours; read-out: MIC
Strep. spp. 64/848-C = experiment: MIC against human bacteria in vitro; type: cell-based; settings: Strep. spp. 64/848-C; 5% chocolated horse blood agar, 18 hours; read-out: MIC
[10] = tested on: Ps. aeruginosa NCTC 10662; experiment: MIC against human bacteria in vitro; type: cell-based; settings: Pseudomonas aeruginosa, NCTC10662; Ps. aeruginosa NCTC 10662; 5% chocolated horse blood agar, 18 hours; read-out: MIC
Bacillus subtilis 6633 = experiment: MIC against human bacteria in vitro; type: cell-based; settings: Bacillus subtilis 6633; 5% chocolated horse blood agar, 18 hours; read-out: MIC
Staph. aureus Oxford = experiment: MIC against veterinary bacteria in vitro; settings: Staphylococcus aureus, 18 h
Method: as §1

M. suipneumoniae MS 16 = experiment: MIC against mycoplasma in vitro; type: cell-based; settings: Mesomycoplasma hyopneumoniae, MS16, 144 h
K. aerogenes A = experiment: MIC against human bacteria in vitro; type: cell-based; settings: Klebsiella aerogenes; K. aerogenes A; 5% chocolated horse blood agar, 18 hours; read-out: MIC
M. suipneumoniae TAM 6N = experiment: MIC against mycoplasma in vitro; type: cell-based; settings: Mesomycoplasma hyopneumoniae, TAM6N, 144 h

C/C(=C\c1ncc(-c2ccc(Br)cc2)o1)C[C@@H]1OC[C@H](C[C@@H]2O[C@H]2[C@@H](C)[C@H](C)O)[C@@H](O)[C@H]1O [Example 18, 5-p-Bromophenyl-2-(1-normon-2-yl) oxazole A]
MIC [1]: 40 µg/mL (≈ 76.6 µM) | MIC (Strep. uberis SPU1): < 0.039 µg/mL | MIC (S. typhimurium S18): > 80 µg/mL | MIC [2]: 4 µg/mL (≈ 7.66 µM) | MIC (M. suipneumoniae Str. 11): 0.25 µg/mL (≈ 0.479 µM) | MIC (Staph. aureus W2827): 8 µg/mL (≈ 15.3 µM) | MIC (M. hyorhinis ATCC 23234): 0.25 µg/mL (≈ 0.479 µM) | MIC (M. suipneumoniae LABER): 0.25 µg/mL (≈ 0.479 µM) | MIC [3]: > 80 µg/mL | MIC (E. coli NCTC 10418): > 128 µg/mL | MIC [4]: 0.312 µg/mL (≈ 0.597 µM) | MIC (Past. multocida PA2): 1.25 µg/mL (≈ 2.39 µM) | MIC [5]: 4 µg/mL (≈ 7.66 µM) | MIC (Staph. aureus Russell): 8 µg/mL (≈ 15.3 µM) | MIC (M. hyorhinis ATCC 25021): 0.5 µg/mL (≈ 0.957 µM) | MIC (Strep. dysgalactiae SPD1): 0.156 µg/mL (≈ 0.299 µM) | MIC (M. suipneumoniae NB12): 0.5 µg/mL (≈ 0.957 µM) | MIC [6]: > 128 µg/mL | MIC (Strep. agalactiae 2788-B): 8 µg/mL (≈ 15.3 µM) | MIC (Strep. faecalis I): > 128 µg/mL | MIC (E. coli ESS): 8 µg/mL (≈ 15.3 µM) | MIC (S. dublin S7): > 80 µg/mL | MIC [7]: 0.5 µg/mL (≈ 0.957 µM) | MIC [8]: 0.1 µg/mL (≈ 0.191 µM) | MIC [9]: 2 µg/mL (≈ 3.83 µM) | MIC (M. suipneumoniae HK(2)): 1 µg/mL (≈ 1.91 µM) | MIC (Strep. pneumoniae CN33): 4 µg/mL (≈ 7.66 µM) | MIC (Strep. spp. 64/848-C): 4 µg/mL (≈ 7.66 µM) | MIC [10]: > 128 µg/mL | MIC (Bacillus subtilis 6633): 1 µg/mL (≈ 1.91 µM) | MIC (Staph. aureus Oxford): 0.625 µg/mL (≈ 1.2 µM) | MIC (M. suipneumoniae MS 16): 0.25 µg/mL (≈ 0.479 µM) | MIC (K. aerogenes A): > 128 µg/mL | MIC (M. suipneumoniae TAM 6N): 1 µg/mL (≈ 1.91 µM)

From patent US5041567A, “Antibacterial monic acid derivatives” (Beecham Group plc, priority 1982, dated 1991)
